# Data taken from patent US12509449B2, “Anthelmintic compounds comprising a quinoline structure” (Intervet Inc., priority 2019, dated 2025).
# Assays:
# [1] = system: Oesophagostumum dentatum L3; test: In vitro assay Oesophagostumum dentatum larval stage 3, minimum effective concentration; format: cell-based; conditions: 20 larvae per well, microscopic examination; read-out: MEC (minimum effective concentration) against Oesophagostumum dentatum L3
# Description: (§1) […] galli (intestinal roundworm of chicken), larval stage 3 (“L3”); and Oesophagostumum dentatum (nodular worm of swine), larval stages 3 and 4 (respectively “L3” and “L4”) where suspended in a nutrient medium and distributed to 96 well plates with 20 larvae per well. The wells were spiked DMSO solutions of the compounds with declining concentration.
# [2] = molecular target: T1, human Maxi K channel (BK channel), KCNMA1 (KCa1.1) and beta1 (KCNMB1) subunits (Homo sapiens, UniProt Q12791); test: Agonistic activity at the human Maxi K channel (BK channel), membrane potential (FLIPR) in transfected CHO K1 cells; format: cell-based; conditions: membrane potential dye, 70 mM KCl
# T1 construct: expressed in transfected cells; host or cells: CHO K1
# Description: A CHO K1 cell line was stably transfected with the KCNMA1 (KCa1.1, U11058) and beta1 (KCNMB1) subunits of the human Maxi K channel (Ponte et al, Molecular Pharmacology 2012, 81(4), 567-577).
# The complete measurement takes 150 s.
# [3] = molecular target: Caenorhabditis elegans slo-1a (Caenorhabditis elegans, UniProt Q95V25); test: Agonistic activity at C. elegans Slo-1a, membrane potential (FLIPR) in transfected CHO K1 cells; conditions: EC50 agonistic activity at C. elegans Slo-1a, membrane potential dye, 70 mM KCl
# Description: A CHO K1 cell line stably transfected with the Caenorhabditis elegans slo-1a (accession no Y51A2D.19a) was established. Cells were seeded in microtiter plates (black 384-well MTP, clear bottom) in a concentration of 10,000 cells/well in 25 μl medium and cultured for 20 to 24 hours at 37° C. and 5% CO2. The cell medium was removed, and the cells washed with Tyrode's solution. 1 of FMP-dye Blue-Tyrode's was added to each well and incubated at room temperature for 30 min.
# For the membrane potential measurements, the prepared cell plate and substance plate were placed in the FLIPR Tetra (Molecular Devices). The baseline measurement of the fluorescence was stared for 20 sec (Exc. 510-545 nm, Emm. 565-625 nm). The cells were depolarized by addition of 25p of the diluted test compounds (final assay concentration of the KCl-Tyrode: 70 mM KCl, 2 mM CaCl2), 1 mM MgCl2, 0.8 mM NaH2PO4, 5 mM Glucose, 28 mM Hepes, pH 7.4, including the voltage sensitive dye). The complete measurement takes 150 s.
# EC50 values were determined in triplicate utilizing compound dilution series. The data were determined at least in two independent tests. The data were proceeded by using the ActivityBase XE Runner software (IDBS) for curve fitting and calculation of the half-maximal effective concentration.
# Ascaridia galli L3 = test: In vitro assay Ascaridia galli larval stage 3, minimum effective concentration; format: cell-based; conditions: 20 larvae per well, microscopic examination, read-out: MEC (minimum effective concentration) against Ascaridia galli L3
# Description: as §1
# Chain of Caenorhabditis elegans slo-1a (Q95V25 whole entry): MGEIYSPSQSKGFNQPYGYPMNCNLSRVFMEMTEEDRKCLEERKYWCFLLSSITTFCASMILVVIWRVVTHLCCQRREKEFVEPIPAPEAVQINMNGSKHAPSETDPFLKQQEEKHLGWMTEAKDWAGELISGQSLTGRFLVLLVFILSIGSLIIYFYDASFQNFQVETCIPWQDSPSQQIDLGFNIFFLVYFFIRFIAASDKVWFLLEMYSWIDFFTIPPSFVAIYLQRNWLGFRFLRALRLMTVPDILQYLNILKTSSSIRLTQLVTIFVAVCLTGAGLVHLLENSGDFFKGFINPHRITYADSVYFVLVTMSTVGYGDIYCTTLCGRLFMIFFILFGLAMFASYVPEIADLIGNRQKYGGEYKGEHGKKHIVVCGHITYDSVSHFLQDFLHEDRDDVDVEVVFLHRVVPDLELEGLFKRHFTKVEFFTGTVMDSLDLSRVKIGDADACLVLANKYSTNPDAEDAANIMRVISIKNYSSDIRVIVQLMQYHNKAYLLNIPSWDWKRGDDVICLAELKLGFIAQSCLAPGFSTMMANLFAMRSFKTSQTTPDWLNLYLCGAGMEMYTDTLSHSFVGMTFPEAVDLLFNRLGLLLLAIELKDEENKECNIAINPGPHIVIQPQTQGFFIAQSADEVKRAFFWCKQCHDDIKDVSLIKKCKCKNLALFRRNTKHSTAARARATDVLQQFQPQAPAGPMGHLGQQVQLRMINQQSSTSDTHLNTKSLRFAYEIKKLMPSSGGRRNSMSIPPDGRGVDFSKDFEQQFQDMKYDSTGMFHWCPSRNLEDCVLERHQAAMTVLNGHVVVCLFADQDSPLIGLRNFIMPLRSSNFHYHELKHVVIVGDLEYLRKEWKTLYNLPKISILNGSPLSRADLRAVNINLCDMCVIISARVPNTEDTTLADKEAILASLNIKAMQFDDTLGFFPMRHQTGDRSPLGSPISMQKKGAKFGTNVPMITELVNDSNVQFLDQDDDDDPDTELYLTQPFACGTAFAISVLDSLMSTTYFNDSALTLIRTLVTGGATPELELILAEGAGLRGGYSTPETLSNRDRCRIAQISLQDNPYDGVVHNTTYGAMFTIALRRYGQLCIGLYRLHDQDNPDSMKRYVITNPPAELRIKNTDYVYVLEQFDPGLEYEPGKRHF
# T1 sequence (Q12791 1-1178 isoform Q12791-5): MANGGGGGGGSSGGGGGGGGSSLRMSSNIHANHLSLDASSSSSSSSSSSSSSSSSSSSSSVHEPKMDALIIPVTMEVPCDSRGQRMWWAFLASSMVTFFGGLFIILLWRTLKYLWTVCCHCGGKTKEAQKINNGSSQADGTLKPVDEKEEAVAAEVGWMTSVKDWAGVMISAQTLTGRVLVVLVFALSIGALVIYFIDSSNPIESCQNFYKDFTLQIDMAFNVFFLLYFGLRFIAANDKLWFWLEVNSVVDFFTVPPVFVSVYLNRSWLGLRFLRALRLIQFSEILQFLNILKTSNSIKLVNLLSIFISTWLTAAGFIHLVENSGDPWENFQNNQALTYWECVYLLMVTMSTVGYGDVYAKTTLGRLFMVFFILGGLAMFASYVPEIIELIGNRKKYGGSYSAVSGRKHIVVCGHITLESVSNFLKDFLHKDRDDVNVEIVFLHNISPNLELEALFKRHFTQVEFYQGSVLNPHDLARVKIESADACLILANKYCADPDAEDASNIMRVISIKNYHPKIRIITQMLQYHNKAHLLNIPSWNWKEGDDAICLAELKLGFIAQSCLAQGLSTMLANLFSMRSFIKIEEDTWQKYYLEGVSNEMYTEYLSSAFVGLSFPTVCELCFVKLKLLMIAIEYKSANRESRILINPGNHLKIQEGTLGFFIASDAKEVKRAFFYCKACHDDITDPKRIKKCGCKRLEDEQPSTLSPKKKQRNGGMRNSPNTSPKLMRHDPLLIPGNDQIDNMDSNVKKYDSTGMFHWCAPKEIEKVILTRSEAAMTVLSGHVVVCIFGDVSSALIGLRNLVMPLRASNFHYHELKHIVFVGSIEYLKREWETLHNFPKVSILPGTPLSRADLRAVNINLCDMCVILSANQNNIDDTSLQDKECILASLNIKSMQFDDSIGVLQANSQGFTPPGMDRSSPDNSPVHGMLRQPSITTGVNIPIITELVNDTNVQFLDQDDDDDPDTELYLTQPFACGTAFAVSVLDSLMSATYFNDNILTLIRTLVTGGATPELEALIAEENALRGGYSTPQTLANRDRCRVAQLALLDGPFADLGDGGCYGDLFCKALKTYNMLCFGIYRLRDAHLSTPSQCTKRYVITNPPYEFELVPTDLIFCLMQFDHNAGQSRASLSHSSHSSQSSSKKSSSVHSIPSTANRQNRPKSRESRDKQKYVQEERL
# T1 sequence (Q16558 whole entry partner): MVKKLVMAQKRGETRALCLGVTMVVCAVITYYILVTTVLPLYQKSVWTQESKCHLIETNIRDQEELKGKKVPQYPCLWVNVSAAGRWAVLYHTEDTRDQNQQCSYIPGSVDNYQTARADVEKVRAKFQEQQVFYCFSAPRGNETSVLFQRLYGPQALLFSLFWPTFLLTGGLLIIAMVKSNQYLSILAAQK
SMILES,minimal effective concentration [1],EC50 [2],EC50 [3],minimal effective concentration (Ascaridia galli L3)
CN(C)c1c(NC(=O)Cc2ccc(Cl)cc2)cnc2c(-c3cccc(Cl)c3Cl)cccc12 [Compound 25],≤ 50 µM,> 30 µM,< 10 µM,
COc1c(NC(=O)C2CCCc3ccccc32)cnc2c(-c3cccc(Cl)c3Cl)cccc12 (stereo not shown) [Compound 14],,> 30 µM,< 1 µM,≤ 50 µM
COc1c(NC(=O)C2CCCc3ccccc32)cnc2c(-c3cc(Cl)cc(Cl)c3)cccc12 (stereo not shown) [Compound 69],,> 30 µM,< 1 µM,≤ 50 µM
CN(C)c1c(NC(=O)C2CCOc3ccccc32)cnc2c(-c3cccc(Cl)c3Cl)cccc12 (stereo not shown) [Compound 12],,> 30 µM,< 1 µM,≤ 50 µM
CCc1c(NC(=O)C2CCOc3ccccc32)cnc2c(-c3cc(Cl)cc(Cl)c3)cccc12 (stereo not shown) [Compound 195],,> 30 µM,< 1 µM,≤ 50 µM
Cc1ccc2c(N(C)C)c(NC(=O)[C@H]3CCc4ccccc43)cnc2c1-c1cc(Cl)cc(Cl)c1 [Compound 182],,> 30 µM,< 1 µM,≤ 50 µM
CN(C)c1c(NC(=O)C2CCOc3ccccc32)cnc2c(-c3cc(F)c(F)c(F)c3)cccc12 (stereo not shown) [Compound 39],,> 30 µM,< 10 µM,≤ 50 µM
O=C(Nc1cnc2c(-c3cccc(Cl)c3Cl)cccc2c1NCCO)C1CCOc2ccccc21 (stereo not shown) [Compound 90],≤ 50 µM,> 30 µM,< 10 µM,≤ 50 µM
Nc1c(NC(=O)C2CCOc3ccccc32)cnc2c(-c3cccc(Cl)c3Cl)cccc12 (stereo not shown) [Compound 84],,> 30 µM,< 10 µM,≤ 50 µM
CCc1c(NC(=O)[C@H]2CCCc3ccccc32)cnc2c(-c3cc(Cl)cc(Cl)c3)cccc12 [Compound 197],,> 30 µM,< 1 µM,≤ 50 µM
CC(C)Oc1c(NC(=O)C2CCOc3ccccc32)cnc2c(-c3cccc(Cl)c3Cl)cccc12 (stereo not shown) [Compound 32],≤ 50 µM,> 30 µM,,≤ 50 µM
COc1c(NC(=O)C2CCc3ccccc32)cnc2c(-c3cccc(Cl)c3Cl)cccc12 (stereo not shown) [Compound 16],,> 30 µM,< 1 µM,≤ 50 µM
CC(C(=O)Nc1cnc2c(-c3cccc(Cl)c3Cl)cccc2c1N1CCOCC1)c1ccccc1 (stereo not shown) [Compound 21],,> 30 µM,< 10 µM,≤ 50 µM
O=C(Nc1cnc2c(-c3cccc(Cl)c3Cl)cccc2c1O)C1CCOc2ccccc21 (stereo not shown) [Compound 112],≤ 50 µM,> 30 µM,,
CCc1c(NC(=O)C2CCCc3ccccc32)cnc2c(-c3cc(Cl)cc(Cl)c3)cccc12 (stereo not shown) [Compound 191],≤ 50 µM,> 30 µM,< 1 µM,
CCc1c(NC(=O)c2cccc3ccccc23)cnc2c(-c3cc(Cl)cc(Cl)c3)cccc12 [Compound 199],,> 30 µM,< 10 µM,≤ 50 µM
COc1c(NC(=O)C2CCCc3ccccc32)cnc2c(-c3cc(Cl)cc(Cl)c3)c(F)ccc12 (stereo not shown) [Compound 113],,> 30 µM,< 1 µM,≤ 50 µM
COc1c(NC(=O)[C@H]2CCCc3ccccc32)cnc2c(-c3cc(Cl)cc(Cl)c3)cccc12 [Compound 155],,> 30 µM,< 1 µM,≤ 50 µM
Cc1ccc(CC(=O)Nc2cnc3c(-c4cccc(Cl)c4Cl)cccc3c2N(C)C)cc1 [Compound 26],≤ 50 µM,> 30 µM,< 10 µM,

SMILES,minimal effective concentration [1],EC50 [2],EC50 [3],minimal effective concentration (Ascaridia galli L3)
CN(C)c1c(NC(=O)C2CCCc3ccccc32)cnc2c(-c3cc(Cl)cc(Cl)c3)c(F)ccc12 (stereo not shown) [Compound 115],,> 30 µM,< 1 µM,≤ 50 µM
CN(CCO)c1c(NC(=O)C2CCCc3ccccc32)cnc2c(-c3cccc(Cl)c3Cl)cccc12 (stereo not shown) [Compound 102],,10 to 30 µM,< 1 µM,≤ 50 µM
"CCOc1c(NC(=O)C2CCc3ccccc32)cnc2c(-c3cccc(Cl)c3Cl)cccc12 (stereo not shown) [Compound 57, N-(8-(2,3-dichlorophenyl)-4-ethoxyquinolin-3-yl)-2,3-dihydro-1H-indene-1-carboxamide]",≤ 50 µM,> 30 µM,< 1 µM,
CN(C)c1c(NC(=O)C2CCOc3ccccc32)cnc2c(-c3cc(Cl)cc(Cl)c3)cccc12 (stereo not shown) [Compound 67],,> 30 µM,< 1 µM,≤ 50 µM
CC(C)Oc1c(NC(=O)c2cccc3ccccc23)cnc2c(-c3cc(Cl)cc(Cl)c3)cccc12 [Compound 81],≤ 50 µM,> 30 µM,,
Cc1c(NC(=O)C2CCOc3ccccc32)cnc2c(-c3cc(Cl)cc(Cl)c3)cccc12 (stereo not shown) [Compound 194],,> 30 µM,< 10 µM,≤ 50 µM
CC(C)Oc1c(NC(=O)C2CCc3ccccc32)cnc2c(-c3cccc(Cl)c3Cl)c(F)ccc12 (stereo not shown) [Compound 142],≤ 50 µM,> 30 µM,,≤ 50 µM
CCOc1c(NC(=O)[C@H]2CCCc3ccccc32)cnc2c(-c3cc(Cl)cc(Cl)c3)cccc12 [Compound 154],,> 30 µM,< 1 µM,≤ 50 µM
COc1c(NC(=O)C2CCOc3ccccc32)cnc2c(-c3cccc(Cl)c3Cl)c(C)ccc12 (stereo not shown) [Compound 164],,> 30 µM,< 10 µM,≤ 50 µM
O=C(Nc1cnc2c(-c3cc(Cl)cc(Cl)c3)c(F)ccc2c1N1CCOCC1)C1CCc2ccccc21 (stereo not shown) [Compound 136],,> 30 µM,< 10 µM,≤ 50 µM
CC(C)Oc1c(NC(=O)C2CCCc3ccccc32)cnc2c(-c3cccc(Cl)c3Cl)c(F)ccc12 (stereo not shown) [Compound 122],≤ 50 µM,> 30 µM,,≤ 50 µM
COc1c(NC(=O)C2CCOc3ccccc32)cnc2c(-c3cccc(Cl)c3Cl)cccc12 (stereo not shown) [Compound 15],,> 30 µM,< 1 µM,≤ 50 µM
CN(C)c1c(NC(=O)C2CCOc3ccccc32)cnc2c(-c3cc(F)cc(F)c3)cccc12 (stereo not shown) [Compound 38],,> 30 µM,< 10 µM,≤ 50 µM
COc1c(NC(=O)C2CCOc3ccccc32)cnc2c(-c3cc(Cl)cc(Cl)c3)c(F)ccc12 (stereo not shown) [Compound 123],,> 30 µM,< 1 µM,≤ 50 µM
CN(C)c1c(NC(=O)[C@H]2CCc3ccccc32)cnc2c(-c3cc(Cl)cc(Cl)c3)c(Cl)ccc12 [Compound 180],,> 30 µM,< 1 µM,≤ 50 µM
CCOc1c(NC(=O)C2CCCc3ccccc32)cnc2c(-c3cc(Cl)cc(Cl)c3)c(F)ccc12 (stereo not shown) [Compound 114],≤ 50 µM,> 30 µM,,
Cc1cccc(CC(=O)Nc2cnc3c(-c4cccc(Cl)c4Cl)cccc3c2N(C)C)c1 [Compound 35],≤ 50 µM,> 30 µM,< 10 µM,
C=C(C)c1c(NC(=O)C2CCCc3ccccc32)cnc2c(-c3cccc(Cl)c3Cl)cccc12 (stereo not shown) [Compound 202],≤ 50 µM,> 30 µM,< 1 µM,
